How the values were obtained:
HCV replicon = experiment: Anti-HCV replicon assay, EC50 (luciferase readout); format: cell-based; conditions: Hepatitis C virus, 72 h; Huh-7 HCV replicon cells, 3 days incubation, luciferase luminescence
Method in brief: (§1)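 Huh-7 cells harbouring an HCV replicon (6000/well) incubated 3 days at 37° C with 3-fold serially diluted compound (0.5% DMSO final where used). EC50 from luciferase luminescence of lysed cells; CC50 from CellTiter-Glo luminescence in parallel plates.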

[1] = CC50 assay in the anti-HCV replicon assay (CellTiter-Glo); format: cell-based, human; conditions: human, Huh-7 hepatoma cells harbouring an HCV replicon; Huh-7 HCV replicon cells, 3 days incubation, CellTiter-Glo luminescence
Method in brief: as §1

Structure (SMILES)	EC50 (HCV replicon) [µM]	CC50 at 3 days [1] [µM]
CCOc1nc(N)nc2ccc(-c3ccc(-c4nnc(C)o4)cc3)cc12 [Example 187, 4-Ethoxy-6-[4-(5-methyl-[1,3,4]oxadiazol-2-yl)-phenyl]-quinazolin-2-ylamine]	1 to 10	> 20
CC(C)CNC(=O)c1ccc(-c2ccc3nc(N)nc(OCCO)c3c2)cc1 [Example 188, 4-[2-Amino-4-(2-hydroxy-ethoxy)-quinazolin-6-yl]-N-isobutyl-benzamide]	1 to 10	> 20
Nc1nc(OCCO)c2cc(-c3ccc(C(=O)NC4CCCC4)cc3)ccc2n1 [Example 189, 4-[2-Amino-4-(2-hydroxy-ethoxy)-quinazolin-6-yl]-N-cyclopentyl-benzamide]	1 to 10	> 20
CC(C)NC(=O)c1ccc(-c2ccc3nc(N)nc(OCCO)c3c2)cc1 [Example 190, 4-[2-Amino-4-(2-hydroxy-ethoxy)-quinazolin-6-yl]-N-isopropyl-benzamide]	1 to 10	> 20
CONC(=O)c1ccc(-c2ccc3nc(N)nc(OCCO)c3c2)cc1 [Example 191, 4-[2-Amino-4-(2-hydroxy-ethoxy)-quinazolin-6-yl]-N-methoxy-benzamide]	1 to 10	> 20
Nc1nc(OCCO)c2cc(-c3ccc(C(=O)N4CCSC4)cc3)ccc2n1 [Example 192, {4-[2-Amino-4-(2-hydroxy-ethoxy)-quinazolin-6-yl]-phenyl}-thiazolidin-3-yl-methanone]	1 to 10	> 20
Nc1nc(OCCO)c2cc(-c3ccc(O)cc3)ccc2n1 [Example 193, 4-[2-Amino-4-(2-hydroxy-ethoxy)-quinazolin-6-yl]-phenol]	1 to 10	> 20
Nc1nc(OCCO)c2cc(-c3cccc(O)c3)ccc2n1 [Example 194, 3-[2-Amino-4-(2-hydroxy-ethoxy)-quinazolin-6-yl]-phenol]	1 to 10	10 to 20
Nc1nc(OCCO)c2cc(-c3ccc(C(=O)NC4CC4)cc3)ccc2n1 [Example 195, 4-[2-Amino-4-(2-hydroxy-ethoxy)-quinazolin-6-yl]-N-cyclopropyl-benzamide]	1 to 10	> 20
Nc1nc(OCCF)c2cc(-c3ccc(C(=O)N4CCCCC4)cc3)ccc2n1 [Example 196, {4-[2-Amino-4-(2-fluoro-ethoxy)-quinazolin-6-yl]-phenyl}-piperidin-1-yl-methanone]	1 to 10	> 20
Nc1nc(OCCF)c2cc(-c3ccc(C(=O)NCc4ccccc4)cc3)ccc2n1 [Example 197, 4-[2-Amino-4-(2-fluoro-ethoxy)-quinazolin-6-yl]-N-benzyl-benzamide]	1 to 10	10 to 20
CC(C)CNC(=O)c1ccc(-c2ccc3nc(N)nc(OCCF)c3c2)cc1 [Example 198, 4-[2-Amino-4-(2-fluoro-ethoxy)-quinazolin-6-yl]-N-isobutyl-benzamide]	1 to 10	10 to 20
CCCCNC(=O)c1ccc(-c2ccc3nc(N)nc(OCCF)c3c2)cc1 [Example 199, 4-[2-Amino-4-(2-fluoro-ethoxy)-quinazolin-6-yl]-N-butyl-benzamide]	1 to 10	> 20
CC(C)(C)NC(=O)c1ccc(-c2ccc3nc(N)nc(OCCF)c3c2)cc1 [Example 200, 4-[2-Amino-4-(2-fluoro-ethoxy)-quinazolin-6-yl]-N-tert-butyl-benzamide]	1 to 10	> 20
Nc1nc(OCCF)c2cc(-c3ccc(C(=O)NC4CCCC4)cc3)ccc2n1 [Example 201, 4-[2-Amino-4-(2-fluoro-ethoxy)-quinazolin-6-yl]-N-cyclopentyl-benzamide]	1 to 10	10 to 20
CC(C)NC(=O)c1ccc(-c2ccc3nc(N)nc(OCCF)c3c2)cc1 [Example 202, 4-[2-Amino-4-(2-fluoro-ethoxy)-quinazolin-6-yl]-N-isopropyl-benzamide]	1 to 10	> 20
CONC(=O)c1ccc(-c2ccc3nc(N)nc(OCCF)c3c2)cc1 [Example 203, 4-[2-Amino-4-(2-fluoro-ethoxy)-quinazolin-6-yl]-N-methoxy-benzamide]	1 to 10	> 20
Nc1nc(OCCF)c2cc(-c3ccc(C(=O)N4CCSC4)cc3)ccc2n1 [Example 204, {4-[2-Amino-4-(2-fluoro-ethoxy)-quinazolin-6-yl]-phenyl}-thiazolidin-3-yl-methanone]	1 to 10	> 20
Nc1nc(OCCF)c2cc(-c3ccc(C(=O)N4CCSCC4)cc3)ccc2n1 [Example 205, {4-[2-Amino-4-(2-fluoro-ethoxy)-quinazolin-6-yl]-phenyl}-thiomorpholin-4-yl-methanone]	1 to 10	> 20
Nc1nc(OCCF)c2cc(-c3ccc(C(=O)NC4=NCCS4)cc3)ccc2n1 [Example 206, 4-[2-Amino-4-(2-fluoro-ethoxy)-quinazolin-6-yl]-N-(4,5-dihydro-thiazol-2-yl)-benzamide]	1 to 10	> 20
CNC(=O)c1ccc(-c2ccc3nc(N)nc(OCCF)c3c2)cc1Cl [Example 207, 4-[2-Amino-4-(2-fluoro-ethoxy)-quinazolin-6-yl]-2-chloro-N-methyl-benzamide]	1 to 10	> 20
Nc1nc(OCCF)c2cc(-c3ccc(C(=O)NC4CC4)c(Cl)c3)ccc2n1 [Example 208, 4-[2-Amino-4-(2-fluoro-ethoxy)-quinazolin-6-yl]-2-chloro-N-cyclopropyl-benzamide]	1 to 10	> 20
Nc1nc(OCCF)c2cc(-c3ccc(O)cc3)ccc2n1 [Example 209, 4-[2-Amino-4-(2-fluoro-ethoxy)-quinazolin-6-yl]-phenol]	1 to 10	> 20
Nc1nc(OCCF)c2cc(-c3cccc(O)c3)ccc2n1 [Example 210, 3-[2-Amino-4-(2-fluoro-ethoxy)-quinazolin-6-yl]-phenol]	1 to 10	> 20
Nc1nc(OCCF)c2cc(-c3ccc(C(=O)NC4CC4)cc3)ccc2n1 [Example 211, 4-[2-Amino-4-(2-fluoro-ethoxy)-quinazolin-6-yl]-N-cyclopropyl-benzamide]	0.3 to 1	> 20
CNC(=O)c1ccc(-c2ccc3nc(N)nc(OCCF)c3c2)cc1 [Example 212, 4-[2-Amino-4-(2-fluoro-ethoxy)-quinazolin-6-yl]-N-methyl-benzamide]	1 to 10	> 20
Nc1nc(OC[C@@H]2CCCO2)c2cc(-c3ccc(C(=O)NC4CC4)cc3)ccc2n1 [Example 213]	< 0.3	> 20
CCOc1nc(N)nc2ccc(-c3ccc(C(N)=O)cc3)cc12 [Example 214, 4-(2-Amino-4-ethoxy-quinazolin-6-yl)-benzamide]	< 0.3	> 20
Nc1nc(O[C@H]2CCOC2)c2cc(-c3ccc(C(=O)NC4CC4)cc3)ccc2n1 [Example 215, (S)-4-[2-Amino-4-(tetrahydro-furan-3-yloxy)-quinazolin-6-yl]-N-cyclopropyl-benzamide]	< 0.3	> 20
CN(C)CCNC(=O)c1ccc(-c2ccc3nc(N)nc(O[C@H]4CCOC4)c3c2)cc1 [Example 216]	< 0.3	> 20
